In article PMC10012172, “Chimeric Peptidomimetic Antibiotic Efficiently Neutralizes Lipopolysaccharides (LPS) and Bacteria-Induced Activation of RAW Macrophages” (ACS Infectious Diseases, 2023):
Where a SMILES comes first, the peptide text is derived from it. Bridges are numbered along the chain shown (N, C = ends). [ ]: non-standard residue; d: D form. Tle = CC(C)(C)[C@H](N)C(=O)O; dDab = NCC[C@@H](N)C(=O)O; hSer = N[C@@H](CCO)C(=O)O; Orn = NCCC[C@H](N)C(=O)O; Dab = NCC[C@H](N)C(=O)O

Experiments:
[1] = tested on: RAW264.7 macrophages stimulated with treated P. aeruginosa; experiment: Silent killing: stimulation of macrophages with nonviable bacteria (TNF-α ELISA); type: cell-based; conditions: RAW264.7 2 h; for macrophage activation (TNF-α) by peptide-treated P. aeruginosa compared to viable untreated bacteria: bacteria 1 × 10^6 CFU/mL treated with 20 μM peptide 1 h at 37 °C, three independent experiments
Description: Figure 7 (A) Determination of macrophage activation in response to viable and nonviable bacteria. P. aeruginosa was treated with gentamicin, heat treatment, CATH-2 (control), CPA, murepavadin, MHM, PMB, or PMBN (20 μM of each) and subsequently added to RAW264.7 macrophages. Production of TNF-α was measured using ELISA after 2 h of treatment. (B) Viability of P. aeruginosa after treatment was checked by plating on TSA plates. Data is plotted as the mean ± SEM of three independent experiments. Significant differences were determined by ordinary one-way ANOVA (Tukey’s multiple comparison test).
RAW264.7 cells were seeded (7.5 × 10^4 cells/well) as described above. P. aeruginosa (diluted to 1 × 10^6 CFU/mL in DMEM) was treated separately with heat (1 h at 90 °C), 1 mg/mL gentamicin (1 h at 37 °C), 20 μM CPA (1 h at 37 °C), 20 μM PMB (1 h at 37 °C), 20 μM murepavadin (1 h at 37 °C), 20 μM MHM (1 h at 37 °C), 20 μM CATH-2 (1 h at 37 °C), and DMEM only (untreated sample) (1 h at 4 °C). After treatment, the bacteria were added to the RAW264.7 cells for 2 h of incubation at 37 °C. After that, TNF-α production was determined in the supernatant by ELISA.

[2] = tested on: E. coli O111:B4 LPS stimulated RAW264.7 macrophages; experiment: TNF-α release ELISA in LPS stimulated macrophages; type: cell-based; conditions: 20 ng/mL E. coli O111:B4 LPS, 24 h; for concentration inhibiting TNF-α release: unable to inhibit up to highest concentration
Description: (§1) Figure 4 Peptides modulation of cytokine expression in RAW264.7 cells stimulated with LPS. RAW macrophages were stimulated with 20 ng/mL E. coli LPS in the presence of different concentrations of peptide antibiotics. (A) TNF-α and (B) IL-10 release was measured by ELISA in duplicates. Shown are the mean ± SEM of three independent experiments.
(§2) RAW264.7 cells were seeded (5 × 10^4 cells/well) in a 96-well plate and left at 37 °C for overnight adherence. Then, cells were stimulated with […] types of LPS: 20 ng/mL LPS originating from E. coli O111:B4 (LPS-EB, InvivoGen), 50 ng/mL LPS from P. aeruginosa (PA-10 LPS, Sigma -Aldrich), and 5 ng/mL LPS from E. coli K-12 (LPS-EK, InvivoGen) in the presence of 0–5 μM peptides in DMEM for 24 h. After incubation, the nitrite content (corresponding to nitric oxide produced but quickly oxidized in watery solutions to nitrite) in the supernatant was measured using the Griess assay.[28]
(§3) A sandwich ELISA was used to measure TNF-α and IL-10 concentrations in the supernatant of the same treatment (24 h) used for nitrite measurement, using ELISA Duoset kits (R&D systems, Minneapolis, MN) according to the manufacturer’s protocol.

[3] = tested on: E. coli O111:B4 LPS stimulated RAW264.7 macrophages; experiment: IL-10 release ELISA in LPS stimulated macrophages; type: cell-based; conditions: 20 ng/mL E. coli O111:B4 LPS, 24 h; for concentration inhibiting IL-10 release: unable to inhibit up to highest concentration
Description: as §1, §2, §3

[4] = tested on: Pseudomonas aeruginosa (clinical isolate); type: cell-based; conditions: 3 h
Description: (§4) Figure 2 Determination of MBC values for (A) E. coli and (B) P. aeruginosa. Surviving bacterial colonies were detected after incubation with tested peptides for 3 h in MHB.
(§5) Bacterial strains used in this study were clinical isolates of Escherichia coli and Pseudomonas aeruginosa provided by Utrecht University Medical Center, Department of Medical Microbiology, Utrecht, The Netherlands. Both strains were cultured in Mueller Hinton broth (MHB) (Millipore, Sigma-Aldrich).
(§6) Logarithmic growth phase of an o/n bacterial culture was obtained by diluting it 1:100 in MHB and then incubating it for 3 h at 37 °C while shaking. After that, the OD620 of the bacterial suspension was measured and the bacterial solution was diluted to 2 × 10^6 colony forming units/mL (CFU/mL). Bacteria and peptides in MHB were mixed 1:1 (v/v) and incubated for 3 h at 37 °C in a polypropylene round-bottom 96 well-plate (Corning Costar, Glendale, AZ). Subsequently, 10-fold dilutions were made and plated out on Tryptone Soy Agar (TSA) plates and incubated for 24 h at 37 °C to count colonies.

[5] = tested on: Escherichia coli (clinical isolate); type: cell-based; conditions: clinical isolate, 3 h
Description: as §4, §5, §6

E. coli O111:B4 LPS = experiment: Isothermal titration calorimetry (ITC) of LPS binding; conditions: 30 μM peptide, 200 μM LPS in 50% PBS, 37 °C, representative of two measurements
Description: Figure 6 (A) Binding profile of LPS and the peptides using ITC. Binding signatures (ΔG, ΔH. and −TΔS) plotted for binding events of LPS with peptides. (B) Spectra of the interaction between LPS and peptides. Murepavadin, PMB, MHM, PMBN, and CPA (30 μM) were titrated against 200 μM E. coli O111:B4 LPS, and heat rates were recorded. Shown is a representative of two measurements.
ITC measurements were performed in a low volume NanoITC (TA Instruments-Waters LLC, New Castle, DE). Two hundred micromolar LPS (from E. coli O111:B4) was prepared in 50% PBS. Peptides of 30 μM concentration were prepared in identical buffer. Three hundred microliters of the peptide solution was added to the chamber (chamber volume is 169 μL, so the rest of the volume flows out and rests around the chamber), and 50 μL of LPS was added to the syringe. At 37 °C, 2 μL of LPS solution was injected into the chamber every 300 s, except the first injection, which consists of 0.96 μL. The experiments were performed at 37 °C while stirring at 300 rpm. The data was analyzed with the NanoAnalyze Software (TA Instruments, Asse, Belgium).

[6] = tested on: E. coli O111:B4 LPS stimulated RAW264.7 macrophages; experiment: Nitric oxide inhibition assay (Griess), E. coli O111:B4 LPS; type: cell-based; conditions: smooth E. coli O111:B4 LPS 20 ng/mL; 0–5 μM peptide; 24 h
Description: (§7) Figure 3 Nitric oxide inhibition in LPS stimulated RAW264.7 by peptide antibiotics. RAW264.7 cells were stimulated with smooth type LPSs (A) E. coli O111:B4 LPS and (B) P. aeruginosa LPS and rough type LPS (C) E. coli K-12 LPS in the presence of different concentrations of peptides: CPA, murepavadin, MHM, PMB, and PMBN. NO production was measured by Griess assay. Shown are the mean ± SEM of three independent experiments. (D) Schematic diagram of the general structure of lipopolysaccharides. It consists of three main subunits: lipid A, the core region, and the O-antigen. Lipid A and the core-region form rough (R)-type LPS. Lipid A, the core-region, and the O-antigen together form smooth (S)-type LPS.
as §2

[7] = tested on: P. aeruginosa 10 LPS stimulated RAW264.7 macrophages; experiment: Nitric oxide inhibition assay (Griess), P. aeruginosa 10 LPS; type: cell-based; conditions: smooth P. aeruginosa 10 LPS 50 ng/mL; 0–5 μM peptide; 24 h
Description: as §7, §2

[8] = tested on: E. coli K-12 LPS stimulated RAW264.7 macrophages; experiment: Nitric oxide inhibition assay (Griess), E. coli K-12 LPS; type: cell-based; conditions: rough E. coli K-12 LPS 5 ng/mL; 0–5 μM peptide; 24 h
Description: as §7, §2

| Compound | macrophage activation (TNF-α) by gentamicin-killed P. aeruginosa compared to viable untreated bacteria ([1]; bacteria treated with 1 mg/mL gentamicin 1 h at 37 °C) | concentration inhibiting TNF-α release [2] [µM] | concentration inhibiting IL-10 release [3] [µM] | macrophage activation (TNF-α) by peptide-treated P. aeruginosa compared to viable untreated bacteria [1] | MBC (complete killing) against P. aeruginosa [4] [µM] | MBC (complete killing) against E. coli [5] [µM] | Kd (E. coli O111:B4 LPS) [nM] | inhibition of LPS-induced nitric oxide production (in words) [6] | inhibition of IL-10 release (in words) [3] | inhibition of LPS-induced nitric oxide production (in words) [7] | inhibition of TNF-α release (in words) [2] | inhibition of LPS-induced nitric oxide production (in words) [8] |
| --- | --- | --- | --- | --- | --- | --- | --- | --- | --- | --- | --- | --- |
| CNC(C)C1CCC(N)C(OC2C(N)CC(N)C(OC3OCC(C)(O)C(NC)C3O)C2O)O1 (centres unmarked) [Gentamicin] | almost same level as viable untreated bacteria |  |  |  |  |  |  |  |  |  |  |  |
| CC(C)[C@@H]1NC(=O)[C@@H]2CCCN2C(=O)[C@@H](C)NC(=O)[C@H](CO)NC(=O)[C@H](C)NC(=O)[C@H](C(C)(C)C)NC(=O)[C@H](CCO)NC(=O)[C@H](Cc2c[nH]c3ccccc23)NC(=O)[C@H](CCO)NC(=O)[C@@H](CCN)NC(=O)[C@H](CCC(=O)O)NC(=O)[C@H](CCN)NC(=O)[C@H](Cc2ccc(O)cc2)NC(=O)[C@H]([C@@H](C)O)NC1=O [MHM] (cyclo(VTY[Dab]E[dDab][hSer]W[hSer][Tle]AS[dA]P)) |  | > 5 | > 5 | no significant reduction in macrophage activation | > 20 | > 20 | 970 |  |  |  |  |  |
| CC(C)C[C@@H]1NC(=O)[C@@H](Cc2ccccc2)NC(=O)[C@H](CCN)NC(=O)[C@@H](NC(=O)[C@H](CCN)NC(=O)[C@@H](N)[C@@H](C)O)CCNC(=O)[C@H]([C@@H](C)O)NC(=O)[C@H](CCN)NC(=O)[C@H](CCN)NC1=O [PMBN, polymyxin B nonapeptide] (H-T[Dab][Dab][Dab][dF]L[Dab][Dab]T; lactam 3-C (inferred); N-terminus assumed) |  |  |  |  | > 20 | > 20 | 3800 | partially inhibited nitric oxide production only at 5 μM | inhibit IL-10 release dose-dependently but at concentrations much higher than those required for CPA or PMB | partially inhibited nitric oxide production only at 5 μM |  |  |
| CC[C@H](C)[C@@H]1NC(=O)[C@H](Cc2c[nH]c3ccccc23)NC(=O)[C@H]([C@@H](C)O)NC(=O)[C@@H]2CCCN2C(=O)[C@H]2CCCN2C(=O)[C@H](CO)NC(=O)[C@H](C)NC(=O)[C@H](CCN)NC(=O)[C@H](CCN)NC(=O)[C@H](Cc2c[nH]c3ccccc23)NC(=O)[C@H](CCN)NC(=O)[C@@H](CCN)NC(=O)[C@H](CCCN)NC(=O)[C@H](CCN)NC1=O [murepavadin] (cyclo(TWI[Dab][Orn][dDab][Dab]W[Dab][Dab]AS[dP]P)) |  | > 5 | > 5 | no significant reduction in macrophage activation | 5 to 10 | > 20 | 2020 |  |  |  |  |  |
| chicken cathelicidin 2 (LVQRGRFGRFLRKIRRFRPKVTITIQGSARFG; Cathelicidin-2; UniProt Q2IAL7 123-154, looked up) [CATH-2, chicken cathelicidin 2, control peptide for which silent killing was originally described] |  |  |  | significantly reduced immune response |  |  |  |  |  |  |  |  |
| polymyxin B [PMB] |  |  |  |  |  |  | 2500 | dose-dependently active | slightly less activity compared to CPA | dose-dependently active | slightly less activity compared to CPA | dose-dependently active |
